One test has as its target T1, KDR (VEGFR2) (Homo sapiens, UniProt P35968).
T1 construct: phosphorylation of KDR expressed in human umbilical vein endothelial cells (HUVECs); host or cells: HUVECs (primary human umbilical vein endothelial cells)
Briefly: In vitro phospho-KDR ELISA assay in HUVECs (Test c). It counts as cell-based. To be noted: HUVECs stimulated with VEGF, read-out: IC50 versus phospho-tyrosine formation in KDR. Here is the method: This assay uses a conventional ELISA method to determine the ability of test compounds to inhibit phosphorylation of tyrosine in KDR (VEGFR2).
Human umbilical vein endothelial cells (HUVECs; PromoCell) were routinely incubated at 37° C. with 7.5% CO2 in ‘growth medium’ comprising MCDB 131 (Gibco Catalogue No. 10372-019; 500 ml) containing L-glutamine (Sigma Catalogue No. G3126; 0.848 g), 1% Penicillin Streptomycin (Gibco Catalogue No. 15140-122) and Fetal Bovine Serum (PAA Laboratories Catalogue No. A15-043; 50 ml).
For the assay, the cells were detached from the culture flask using a trypsin/ethylenediaminetetraacetic acid (EDTA) mixture (Invitrogen Ltd.; Catalogue No. 15400-054) and resuspended in ‘test medium’ comprising MCDB 131 (500 ml) containing L-glutamine (0.848 g), 1% Penicillin Streptomycin and Fetal Bovine Serum (10 ml). Aliquots (1 ml) were seeded into each well of a 24 well tissue culture plate (Corning Life Sciences; Catalogue No. 3527) to give a density of approximately 3.5×10^4 cells per well. The cells were incubated overnight at 37° C. with 7.5% CO2 to allow adherence to the well surface. The following morning the assay medium was decanted and an aliquot (0.5 ml) of ‘serum free medium’ comprising MCDB 131 (500 ml) containing L-glutamine (0.848 g) and 1% Penicillin Streptomycin was added to each well. The plates were incubated at 37° C. for 2.5 hours. […]

Another test has as its target T2, PDGFRβ (Homo sapiens, UniProt P09619).
T2 construct: endogenous in cells; host or cells: MG63 osteosarcoma cells (ATCC)
Nature of the test: In vitro phospho-Tyr751 PDGFRβ ELISA assay in MG63 osteosarcoma cells (Test b). The test is classed as cell-based. Particulars: MG63 cells stimulated with PDGFBB, read-out: IC50 versus phospho-Tyr751 formation in PDGFRβ. Here is the method:
This assay uses a conventional ELISA method to determine the ability of test compounds to inhibit phosphorylation of tyrosine in PDGFRβ.
An MG63 osteosarcoma cell line [American Type Culture Collection (ATCC) CCL 1427] was routinely maintained at 37° C. with 7.5% CO2 in Dulbecco's modified Eagle's growth medium (DMEM; Sigma-Aldrich; Catalogue No. D6546) containing 10% foetal calf serum (FCS; Sigma-Aldrich; Catalogue No. F7524) and 2 mM L-glutamine (Invitrogen Ltd., Paisley, UK; Catalogue No. 25030-024).
For the assay, the cells were detached from the culture flask using a trypsin/ethylenediaminetetraacetic acid (EDTA) mixture (Invitrogen Ltd.; Catalogue No. 15400-054) and resuspended in a test medium comprising DMEM without phenol red (Sigma-Aldrich; Catalogue No. D5921) containing 1% charcoal-stripped foetal calf serum (FCS) (Sigma-Aldrich; Catalogue No. F7524, stripped by incubation with dextran-coated activated charcoal at 55° C. for 30 minutes with continuous stirring followed by removal of the charcoal by centrifugation and filter sterilisation) and 2 mM L-glutamine (Invitrogen Ltd., Catalogue No. 25030-024) to give 6×10^4 cells per ml. […]
A general note: ELISA stands for enzyme-linked immunosorbent assay.

Consider two compounds from patent publication US20090042910A1, “QUINOLINE DERIVATIVES FOR TREATING CANCER” (priority 2006, published 2009).

A word on the IC50: it is the concentration that gives 50% inhibition.

T2 sequence (P09619 33-1106): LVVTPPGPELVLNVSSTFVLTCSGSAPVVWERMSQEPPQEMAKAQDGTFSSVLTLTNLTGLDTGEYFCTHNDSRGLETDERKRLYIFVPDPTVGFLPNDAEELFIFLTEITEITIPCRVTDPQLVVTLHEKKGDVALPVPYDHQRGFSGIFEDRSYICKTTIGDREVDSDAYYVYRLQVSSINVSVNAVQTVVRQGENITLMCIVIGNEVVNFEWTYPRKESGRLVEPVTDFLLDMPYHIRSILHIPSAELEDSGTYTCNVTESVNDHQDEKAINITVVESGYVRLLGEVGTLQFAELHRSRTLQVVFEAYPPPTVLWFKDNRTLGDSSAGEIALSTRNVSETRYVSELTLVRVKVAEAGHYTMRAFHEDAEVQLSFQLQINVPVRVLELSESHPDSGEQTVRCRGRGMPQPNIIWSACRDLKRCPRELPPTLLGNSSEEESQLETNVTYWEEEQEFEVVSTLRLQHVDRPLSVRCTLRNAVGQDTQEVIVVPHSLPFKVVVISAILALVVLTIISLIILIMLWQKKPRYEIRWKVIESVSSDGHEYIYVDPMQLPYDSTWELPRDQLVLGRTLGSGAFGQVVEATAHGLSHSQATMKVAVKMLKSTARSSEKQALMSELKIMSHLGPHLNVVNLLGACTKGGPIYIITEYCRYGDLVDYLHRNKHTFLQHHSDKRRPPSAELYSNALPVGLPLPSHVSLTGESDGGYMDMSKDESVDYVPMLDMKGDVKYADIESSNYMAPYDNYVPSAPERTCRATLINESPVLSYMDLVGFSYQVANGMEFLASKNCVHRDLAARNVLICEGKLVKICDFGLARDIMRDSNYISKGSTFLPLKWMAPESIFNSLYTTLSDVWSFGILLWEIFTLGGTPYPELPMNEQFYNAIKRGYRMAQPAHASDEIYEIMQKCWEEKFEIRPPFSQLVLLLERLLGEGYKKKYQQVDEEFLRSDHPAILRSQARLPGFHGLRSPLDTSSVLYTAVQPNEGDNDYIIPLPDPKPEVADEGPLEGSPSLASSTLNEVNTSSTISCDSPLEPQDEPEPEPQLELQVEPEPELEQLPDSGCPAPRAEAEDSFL
T1 sequence (P35968 20-1356): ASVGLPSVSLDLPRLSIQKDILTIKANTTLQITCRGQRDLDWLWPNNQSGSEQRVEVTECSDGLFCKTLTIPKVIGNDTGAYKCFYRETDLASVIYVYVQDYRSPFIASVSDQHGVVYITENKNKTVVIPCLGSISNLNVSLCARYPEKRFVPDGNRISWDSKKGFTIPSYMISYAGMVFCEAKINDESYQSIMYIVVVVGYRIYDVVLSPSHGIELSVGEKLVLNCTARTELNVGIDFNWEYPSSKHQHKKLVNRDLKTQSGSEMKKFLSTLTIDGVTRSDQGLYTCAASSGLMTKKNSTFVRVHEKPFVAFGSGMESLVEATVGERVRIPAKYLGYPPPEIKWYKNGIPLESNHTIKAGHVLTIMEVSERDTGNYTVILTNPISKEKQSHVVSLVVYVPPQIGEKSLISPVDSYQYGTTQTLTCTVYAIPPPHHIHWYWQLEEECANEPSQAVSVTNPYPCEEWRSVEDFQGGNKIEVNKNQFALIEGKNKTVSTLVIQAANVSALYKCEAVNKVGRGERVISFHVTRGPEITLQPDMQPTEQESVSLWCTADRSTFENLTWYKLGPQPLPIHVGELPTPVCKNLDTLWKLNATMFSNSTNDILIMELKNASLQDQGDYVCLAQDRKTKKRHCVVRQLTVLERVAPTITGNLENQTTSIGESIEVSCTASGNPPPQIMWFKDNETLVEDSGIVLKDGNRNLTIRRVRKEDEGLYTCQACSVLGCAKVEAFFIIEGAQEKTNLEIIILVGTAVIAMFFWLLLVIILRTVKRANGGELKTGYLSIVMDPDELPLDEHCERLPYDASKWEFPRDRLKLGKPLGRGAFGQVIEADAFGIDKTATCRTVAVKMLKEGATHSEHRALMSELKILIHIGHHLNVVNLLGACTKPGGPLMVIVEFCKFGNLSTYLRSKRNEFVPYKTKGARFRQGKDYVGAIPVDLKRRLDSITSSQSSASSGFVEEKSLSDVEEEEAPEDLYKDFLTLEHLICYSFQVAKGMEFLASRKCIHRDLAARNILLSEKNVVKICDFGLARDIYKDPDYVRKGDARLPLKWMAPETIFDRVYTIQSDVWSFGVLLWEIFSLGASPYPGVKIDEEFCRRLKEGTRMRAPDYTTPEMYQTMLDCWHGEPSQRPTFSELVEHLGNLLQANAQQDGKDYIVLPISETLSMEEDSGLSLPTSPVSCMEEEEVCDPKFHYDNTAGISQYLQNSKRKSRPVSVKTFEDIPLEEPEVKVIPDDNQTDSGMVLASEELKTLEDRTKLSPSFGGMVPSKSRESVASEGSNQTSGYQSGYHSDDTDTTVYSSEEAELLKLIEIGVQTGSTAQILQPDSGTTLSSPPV

Take `CCc1cc(NC(=O)Cc2ncc(Oc3ccnc4cc(OC)c(OC)cc34)cn2)n[nH]1` [N-(5-ethyl-1H-pyrazol-3-yl)-2-[5-(6,7-dimethoxyquinolin-4-yloxy)pyrimidin-2-yl]acetamide]: the IC50 at KDR (VEGFR2) is approximately 700 nM; at PDGFRβ it was approximately 6 nM.
Take `CCn1cc(NC(=O)Cc2ncc(Oc3ccnc4cc(OC)c(OC)cc34)cn2)cn1` [Example 1, N-(1-ethylpyrazol-4-yl)-2-[5-(6,7-dimethoxyquinolin-4-yloxy)pyrimidin-2-yl]acetamide]: the IC50 at KDR (VEGFR2) was approximately 1000 nM; at PDGFRβ, approximately 7 nM.
